In paper PMC3493529, “Molecular and Pharmacological Characterization of Serotonin 5-HT2α and 5-HT7 Receptors in the Salivary Glands of the Blowfly Calliphora vicina” (PLoS ONE, 2012):
pEC50, pIC50: −log10 of the molar value. Structures can show the parent of a compound that is named as a salt. Where two headings read alike, the source gives them in different places.

Legend:
[1] = target: T1, Cv5-HT2α (Calliphora vicina, UniProt I7JA47); assay: Ca2+ signals (Fluo-4) in Cv5-HT2α-expressing HEK 293 cells, agonists; assay type: cell-based
Description: (§1) We applied a previously established protocol to generate cell lines that constitutively expressed either Cv5-HT2α or Cv5-HT7. […] (flpTM cells, provided by Sibion biosciences GmbH, Jülich, Germany). Approximately 8 µg of the respective expression vectors were introduced into ∼4×10^5 cells by a modified calcium-phosphate method. Stably transfected cells were selected in the presence of the antibiotics Blasticidin (0.1 mg/ml; Cv5-HT2α) or G418 (0.8 mg/ml; Cv5-HT7). Expression of Cv5-HT2α and Cv5-HT7 was monitored by Western blotting with commercially available anti-His antibodies (anti-6x His Epitope Tag; Rockland Immunochemicals Inc, Gilbertsville, USA) and anti-HA antibodies (clone 3F10; Roche, Penzberg, Germany), respectively.
(§2) The ability of Cv5-HT2α to induce Ca^2+ signals in the transfected cell line was measured with the Ca^2+-sensitive dye Fluo-4. Similarly, Cv5-HT7-induced cAMP production was indirectly monitored by the cAMP-dependent activation of the cyclic nucleotide-gated ion channel in flpTM cells (see above). The cyclic nucleotide-gated ion channel is permeable to Ca^2+ ions and thus an increase in [cAMP]i leads to an influx of Ca^2+ ions, which can be detected with Fluo-4. […] After 1 h, the loading solution was substituted for dye-free ES. To inhibit cAMP hydrolysis in Cv5-HT7-expressing cells, ES containing 100 µM isobutylmethylxanthine (IBMX) was used. Plates were transferred into a fluorescence reader (FLUOstar Omega; bmg, Offenburg, Germany) and Fluo-4 fluorescence was monitored. […] Fluorescence emission was detected at 520 nm. Once the basal fluorescence in each well had reached a stable value, various concentrations of the respective ligands were added. The resulting changes in Fluo-4 fluorescence were recorded automatically.

[2] = target: T2, Cv5-HT7 (Calliphora vicina, UniProt I7IA71); assay: cAMP-dependent CNG channel Ca2+ influx (Fluo-4) in Cv5-HT7-expressing flpTM cells, agonists; assay type: cell-based; details: Cv5-HT7-expressing flpTM cells, 100 µM IBMX
Description: as §1, §2

[3] = test system: blowfly salivary glands; assay: Transepithelial potential (TEP) of blowfly salivary glands, agonists; assay type: cell-based, Calliphora vicina; set-up: key to negative TEP phase / positive TEP phase: ++: high amplitude; +: low amplitude; -: no apparent effect; -/+: variable effect
Description: (§3) The abdominal portions of salivary glands were dissected in physiological saline (in mM: 128 NaCl, 10 KCl, 2 CaCl2, 2.7 MgCl2, 3 Na-glutamate, 2.8 maleic acid, 10 D-glucose and 10 Tris-HCl, pH 7.2). Measurements of transepithelial potential (TEP) were performed by the oil-gap method with a DPA-2F differential amplifier (npi Electronic Instruments, Tamm, Germany). Data were sampled and digitized at 1 Hz (KUSB-3102 module for AD-conversion; Keithley, Germering, Germany) by using the software TestPoint (v4.1; Capital Equipment Corp, Billerica, MA, USA) for data acquisition and storage.

[4] = target: T2, Cv5-HT7; assay: Inhibition of 5-HT-induced Fluo-4 signals in Cv5-HT7-expressing cells; assay type: cell-based; details: for IC50: read-out: Cv5-HT7 log IC50 (converted)
Description: as §1, with “Cv5-HT7. For Cv5-HT2α expression, human embryonic kidney cells (HEK 293; ECACC, Salisbury, UK) were chosen.” for “Cv5-HT7.”
(§4) The ability of Cv5-HT2α to induce Ca^2+ signals in the transfected cell line was measured with the Ca^2+-sensitive dye Fluo-4. Similarly, Cv5-HT7-induced cAMP production was indirectly monitored by the cAMP-dependent activation of the cyclic nucleotide-gated ion channel in flpTM cells (see above). The cyclic nucleotide-gated ion channel is permeable to Ca^2+ ions and thus an increase in [cAMP]i leads to an influx of Ca^2+ ions, which can be detected with Fluo-4. Cells were grown in 96-well plates to a density of ∼3×10^4 (Cv5-HT2α) or 1.5×10^4 (Cv5-HT7) and then incubated in extracellular solution (ES in mM: 120 NaCl, 5 KCl, 2 CaCl2, 2 MgCl2, 10 glucose, 10 HEPES, pH 7.4) containing 3 mM probenecid, 0.02% (w/v) Pluronic® F-127 (Sigma) and 2 µM Fluo-4AM (Invitrogen). After 1 h, the loading solution was substituted for dye-free ES. To inhibit cAMP hydrolysis in Cv5-HT7-expressing cells, ES containing 100 µM isobutylmethylxanthine (IBMX) was used. Plates were transferred into a fluorescence reader (FLUOstar Omega; bmg, Offenburg, Germany) and Fluo-4 fluorescence was monitored. The excitation wavelength was 485 nm. Fluorescence emission was detected at 520 nm. Once the basal fluorescence in each well had reached a stable value, various concentrations of the respective ligands were added. The resulting changes in Fluo-4 fluorescence were recorded automatically.
(§5) Changes in Ca^2+-dependent Fluo-4 signals were registered automatically. Data represent the means±SD of eight replicates. […] Relative fluorescence (%) is normalized to the values obtained with 100 nM 5-HT in the absence of antagonists. […] Relative fluorescence (%) is normalized to the values obtained with 6 nM 5-HT in the absence of antagonists.

[5] = target: T1, Cv5-HT2α; assay: Inhibition of 5-HT-induced Ca2+ signals in Cv5-HT2α-expressing cells; assay type: cell-based; details: for IC50: read-out: Cv5-HT2α log IC50 (converted)
Description: as §1, with “Cv5-HT7. For Cv5-HT2α expression, human embryonic kidney cells (HEK 293; ECACC, Salisbury, UK) were chosen.” for “Cv5-HT7.”
as §4, §5

[6] = test system: blowfly salivary glands; assay: 5-HT-induced TEP response of blowfly salivary glands, antagonists; assay type: cell-based, Calliphora vicina; set-up: key to suppression of the positive TEP phase: ++: complete; +: incomplete; -: no apparent effect; -/+: variable effect; key to suppression of the negative TEP phase: ++: high amplitude; +: low amplitude; -: no apparent effect; -/+: variable effect; details: for reversibility / suppression of the negative TEP phase / suppression of the positive TEP phase: TEP response evoked with 10 nM or 30 nM 5-HT
Description: as §3

[7] = Cv5-HT2α EC50, Ca2+-dependent Fluo-4 signal, Cv5-HT2α-expressing HEK 293 cells
[8] = Cv5-HT2α log EC50, Ca2+-dependent Fluo-4 signal, Cv5-HT2α-expressing HEK 293 cells
[9] = Fluo-4 signal, read-out: Cv5-HT7 EC50
[10] = Ca2+-dependent Fluo-4 signal, Cv5-HT2α-expressing HEK 293 cells
[11] = in the presence of 6 nM 5-HT, read-out: Cv5-HT7 IC50
[12] = in the presence of 100 nM 5-HT, read-out: Cv5-HT2α IC50

T1 sequence (I7JA47 entry or part of it): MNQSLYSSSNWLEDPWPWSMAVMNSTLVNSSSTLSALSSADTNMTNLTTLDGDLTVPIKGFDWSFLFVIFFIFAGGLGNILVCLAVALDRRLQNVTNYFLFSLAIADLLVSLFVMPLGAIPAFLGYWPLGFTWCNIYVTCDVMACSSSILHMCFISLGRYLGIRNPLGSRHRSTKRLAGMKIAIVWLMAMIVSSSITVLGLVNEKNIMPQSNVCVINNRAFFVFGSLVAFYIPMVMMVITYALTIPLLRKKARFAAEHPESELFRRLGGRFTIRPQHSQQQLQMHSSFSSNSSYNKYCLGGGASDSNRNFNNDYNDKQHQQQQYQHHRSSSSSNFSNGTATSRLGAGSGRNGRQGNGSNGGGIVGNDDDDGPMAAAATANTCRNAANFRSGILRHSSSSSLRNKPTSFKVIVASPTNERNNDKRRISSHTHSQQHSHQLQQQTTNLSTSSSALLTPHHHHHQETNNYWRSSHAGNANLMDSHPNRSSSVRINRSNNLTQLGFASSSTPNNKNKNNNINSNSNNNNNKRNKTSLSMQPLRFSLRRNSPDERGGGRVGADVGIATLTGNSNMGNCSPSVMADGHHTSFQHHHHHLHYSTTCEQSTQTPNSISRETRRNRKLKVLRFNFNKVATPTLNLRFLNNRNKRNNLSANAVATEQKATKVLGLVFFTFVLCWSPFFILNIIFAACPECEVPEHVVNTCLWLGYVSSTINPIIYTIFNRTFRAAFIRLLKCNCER
T2 sequence (I7IA71 entry or part of it): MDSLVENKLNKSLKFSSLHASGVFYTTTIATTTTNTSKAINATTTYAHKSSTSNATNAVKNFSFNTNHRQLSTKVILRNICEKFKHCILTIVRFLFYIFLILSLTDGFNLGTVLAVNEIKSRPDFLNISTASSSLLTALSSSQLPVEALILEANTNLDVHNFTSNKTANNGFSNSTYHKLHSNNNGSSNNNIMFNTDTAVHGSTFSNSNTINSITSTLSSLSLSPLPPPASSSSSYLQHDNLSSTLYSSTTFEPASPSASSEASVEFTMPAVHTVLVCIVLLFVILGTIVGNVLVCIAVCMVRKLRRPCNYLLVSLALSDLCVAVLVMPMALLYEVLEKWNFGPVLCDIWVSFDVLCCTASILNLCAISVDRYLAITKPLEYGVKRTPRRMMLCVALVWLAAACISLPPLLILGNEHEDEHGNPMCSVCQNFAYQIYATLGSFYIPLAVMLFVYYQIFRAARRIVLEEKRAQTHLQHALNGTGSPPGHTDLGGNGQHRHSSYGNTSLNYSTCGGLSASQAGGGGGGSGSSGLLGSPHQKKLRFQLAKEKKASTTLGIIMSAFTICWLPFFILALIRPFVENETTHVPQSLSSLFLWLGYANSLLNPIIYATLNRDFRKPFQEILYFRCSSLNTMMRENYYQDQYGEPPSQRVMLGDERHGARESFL

## CCCN(CCC)C1CCc2cccc(O)c2C1 (racemic) [8-OH-DPAT, (+/−)-8-hydroxy-2-(dipropylamino)tetralin]
[1]; [7]
  pEC50: 4.21
[1]; [8]
  pEC50: 4.21
[2]; [9]
  pEC50: 5.10
[2]; Fluo-4 signal, read-out: Cv5-HT7 log EC50 (converted)
  EC50: 7.94 µM

## NCCc1c[nH]c2ccc(C(N)=O)cc12 [5-CT, 5-carboxamidotryptamine]
[3]; 0.3 µM
  TEP change of salivary glands: only a positive-going TEP change
  negative TEP phase: -
  positive TEP phase: +
  reversibility: yes
[3]; 10 µM
  negative TEP phase: ++
  positive TEP phase: ++
  reversibility: yes
[3]; concentrations 1 µM
  TEP change of salivary glands: biphasic TEP response
[1]; [10]
  Cv5-HT2α log EC50: −4.29±0.05
[1]; Ca2+-dependent Fluo-4 signal, Cv5-HT2α-expressing HEK 293 cells, read-out: Cv5-HT2α EC50
  pEC50: 4.29
[2]; Fluo-4 signal
  Cv5-HT7 log EC50: −6.37±0.02
[2]; [9]
  pEC50: 6.37

## COc1ccc2[nH]cc(CCN)c2c1 [5-MeOT, 5-methoxytryptamine]
[3]; 30 nM or 100 nM
  TEP change of salivary glands: only a negative-going TEP change
[3]; 0.03-0.1 µM
  negative TEP phase: ++
  positive TEP phase: -
  reversibility: yes
[3]; 1-100 µM
  negative TEP phase: ++
  positive TEP phase: +
  reversibility: yes
[3]; 1–100 µM
  TEP change of salivary glands: biphasic response
[1]; [7]
  pEC50: 7.17
[1]; [8]
  pEC50: 7.17
[2]; Cv5-HT7 EC50, Fluo-4 signal
  pEC50: 6.02
[2]; Cv5-HT7 log EC50, Fluo-4 signal
  pEC50: 6.02

## Cc1nn(C)c(C)c1-c1cccc2c1CC[C@H](N(C)C)C2 [AS 19, (2S)-(+)-5-(1,3,5-Trimethylpyrazol-4-yl)-2-(dimethylamino)tetralin]
[3]; 100 µM
  negative TEP phase: -
  positive TEP phase: -/+
  reversibility: yes
[3]; 1–100 µM
  TEP change of salivary glands: only positive-going changes in the TEP
[1]; [10]
  Cv5-HT2α EC50: no effect
  Cv5-HT2α log EC50: no effect
[2]; Fluo-4 signal
  Cv5-HT7 log EC50: −6.52±0.04
[2]; [9]
  pEC50: 6.52

## CC1CCN(CC[C@H]2CCCN2S(=O)(=O)c2cccc(O)c2)CC1 [SB-269970]
[4]; in the presence of 6 nM 5-HT
  Cv5-HT7 log IC50: −8.06±0.21
  inhibitory efficacy at Cv5-HT7 (reduction of the 5-HT-evoked cellular response): ~15%
[4]; [11]
  pIC50: 8.05
[5]; in the presence of 100 nM 5-HT
  Cv5-HT2α log IC50: −4.27±0.30
[5]; [12]
  pIC50: 4.28

## CN(C)CCCSc1ccccc1NC(=O)/C=C/c1ccccc1 [cinanserin, cinanserin hydrochloride]
[4]; [11]
  pIC50: 6.40
[4]; in the presence of 6 nM 5-HT
  IC50: 0.398 µM
[6]; 10 µM
  effect on 5-HT-induced TEP response: reversibly but incompletely inhibited the positive phase
  reversibility: yes
  suppression of the negative TEP phase: -
  suppression of the positive TEP phase: +
[5]; [12]
  pIC50: 4.52
[5]; in the presence of 100 nM 5-HT
  IC50: 29.5 µM

## CN1CCN(C2=Nc3cc(Cl)ccc3Nc3ccccc32)CC1 [clozapine]
[6]; 1 µM, 30 nM 5-HT
  effect on 5-HT-induced TEP response: completely and selectively inhibited the positive TEP phase
[6]; 1 µM
  reversibility: yes
  suppression of the negative TEP phase: -
  suppression of the positive TEP phase: ++

## NCCc1c[nH]cn1 [histamine]
[1]; 1 µM biogenic amine, non-transfected cells as control
  effect on [Ca2+]i in Cv5-HT2α-expressing cells: stimulated Ca^2+ signals

## O=C(c1ccc(F)cc1)C1CCN(CCn2c(=O)[nH]c3ccccc3c2=O)CC1 [ketanserin]
[4]; [11]
  pIC50: 5.82
[4]; in the presence of 6 nM 5-HT
  IC50: 1.45 µM
[5]; [12]
  pIC50: 4.85
[5]; in the presence of 100 nM 5-HT
  IC50: 14.1 µM

## CSc1ccc2c(c1)C(N1CCN(C)CC1)Cc1ccccc1S2 (centres unmarked) [methiothepin]
[4]; high concentrations (10 µM)
  antagonistic effect on Cv5-HT7: slight antagonistic effect
[4]; in the presence of 6 nM 5-HT
  Cv5-HT7 IC50: not calculable
  Cv5-HT7 log IC50: not calculable
[6]; 3 µM
  reversibility: no
  suppression of the negative TEP phase: -/+
  suppression of the positive TEP phase: ++
[6]; ≥1 µM
  effect on 5-HT-induced TEP response: completely abolished the positive TEP phase
[5]; in the presence of 100 nM 5-HT
  Cv5-HT2α log IC50: −5.92±0.06
[5]; [12]
  pIC50: 5.92

## Cc1ccc(N(CC2=NCCN2)c2cccc(O)c2)cc1 [phentolamine]
[4]; [11]
  pIC50: 5.33
[4]; in the presence of 6 nM 5-HT
  IC50: 4.68 µM
[5]; [12]
  pIC50: 3.70
[5]; in the presence of 100 nM 5-HT
  IC50: 200 µM

## O=C(CCCN1CCC2(CC1)C(=O)NCN2c1ccccc1)c1ccc(F)cc1 [spiperone]
[4]; [11]
  pIC50: 6.55
[4]; in the presence of 6 nM 5-HT
  IC50: 0.275 µM
[6]; 1-10 µM
  reversibility: yes
  suppression of the negative TEP phase: -
  suppression of the positive TEP phase: +
[6]; 1–10 µM
  effect on 5-HT-induced TEP response: reversibly but incompletely inhibited the positive phase
[5]; in the presence of 100 nM 5-HT
  Cv5-HT2α IC50: no effect
  Cv5-HT2α log IC50: no effect

## COC(=O)[C@@H]1[C@H]2C[C@H]3c4[nH]c5ccccc5c4CCN3C[C@@H]2CC[C@@H]1O [yohimbine]
[4]; Cv5-HT7 IC50, in the presence of 6 nM 5-HT
  pIC50: 3.72
[4]; Cv5-HT7 log IC50, in the presence of 6 nM 5-HT
  pIC50: 3.72
[5]; Cv5-HT2α IC50, in the presence of 100 nM 5-HT
  pIC50: 5.54
[5]; Cv5-HT2α log IC50, in the presence of 100 nM 5-HT
  pIC50: 5.54
